The results in this text go back to ChEMBL document CHEMBL1201862, “PubChem BioAssay data set” (2004).

Common to all, as to assay: NCI tumour cell line growth inhibition, 48 h
In assay [1] the test system is A549.
For assay [2], the system named is RPMI-8226.
In assay [3] the test system is SN12C.
Assay [4] concerns SK-MEL-5.
For assay [5], the system named is SF-539.
Assay [6] concerns Malme-3M.
Assay [7] concerns NCI-H522.
The test system of assay [8] is MOLT-4.
Assay [9] relates to LOX IMVI.
Assay [10] has as its system UACC-62.
Assay [11] concerns OVCAR-4.
Assay [12] deals with TK-10.
Assay [13] deals with COLO 205.
In assay [14] the test system is RXF 393.
The subject of assay [15] is KM-20L2.
The subject of assay [16] is MCF7.
In assay [17] the test system is Hs-578T.
Assay [18] deals with MDA-MB-231.
Assay [19] concerns PC-3.
Assay [20] deals with DU-145.

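Briefly, cells in 96-well plates were exposed to five compound concentrations for 48 h, and endpoints were estimated by linear interpolation. GI50 marks 50% less growth.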 Active and inactive are the calls of the source. Rule as the data show it: active = GI50 up to about 1.1 µM and inactive = higher.

Consider `O=C(O)[C@H](NS(=O)(=O)c1ccc([N+](=O)[O-])cc1)c1ccccc1`, for which the GI50 in assay [1], in assay [2], in assay [3], in assay [4], in assay [5] and in assay [6] was > 100 µM (inactive) throughout. Besides, the GI50 in assay [7], in [8], in assay [9], in assay [10], in assay [11] and in assay [12] was > 100 µM (inactive) each time. Besides, the GI50 in assay [13], in assay [14] and in assay [15] was > 100 µM (inactive) throughout.
Consider `C=CC[C@@]1(C#N)C[C@H](C[C@]2(C#N)C[C@H](CCl)OC(C)(C)O2)OC(C)(C)O1`, for which the GI50 is > 100 µM (inactive) in assay [1]; 52.5 µM (inactive) in [2]; > 100 µM (inactive) in assay [3]; 63.5 µM (inactive) in assay [4]; > 100 µM (inactive) in [5]; > 100 µM (inactive) in assay [6]. Also, the GI50 in assay [7] was 46 µM (inactive); in assay [8], 72.8 µM (inactive); in assay [9] it was > 100 µM (inactive); in assay [10] it was > 100 µM (inactive); in [11] it was > 100 µM (inactive); in [12] it was > 100 µM (inactive). Besides, the GI50 in assay [13], in assay [14] and in [15] was > 100 µM (inactive) in each case.
Consider `[O-][N+]1=C(c2ccccc2)COc2ccccc21`, for which the GI50 in assay [1] was > 100 µM (inactive); in assay [2], 67.5 µM (inactive); in assay [3], > 100 µM (inactive); in assay [4], > 100 µM (inactive); in assay [5], > 100 µM (inactive); in [6], > 100 µM (inactive). Further, the GI50 in assay [7] was > 100 µM (inactive); in assay [8], > 100 µM (inactive); in assay [9], 96.4 µM (inactive); in assay [10], > 100 µM (inactive); in assay [11], > 100 µM (inactive); in [12] it was > 100 µM (inactive). In addition, the GI50 in assay [13], in assay [14] and in [15] was > 100 µM (inactive) throughout.
Take `CCCC/C=C/C1Cc2ccccc2CN1S(=O)(=O)c1ccc(C)cc1` (centres undefined): the GI50 is 5.33 µM (inactive) in assay [1]; 2.07 µM (inactive) in [2]; 10.6 µM (inactive) in [3]; 3.28 µM (inactive) in assay [4]; 15.7 µM (inactive) in assay [5]; 6.67 µM (inactive) in assay [6]. The GI50 in assay [7] was 4.31 µM (inactive); in [8], 3.97 µM (inactive); in [9], 8.34 µM (inactive); in assay [10] it was 12.7 µM (inactive); in assay [11] it was 5.85 µM (inactive); in [12] it was 20.9 µM (inactive). The values for the GI50 in [13], in [14] and in assay [15] were 7.29 µM (inactive), 10.8 µM (inactive) and 11.6 µM (inactive), respectively.
Take `COC1=C(C)C(=O)C2=C(C1=O)C1C3CC4=C(C(=O)C(OC)=C(C)C4=O)C(CNC(=O)C(C)=O)N3C(C#N)C(C2)N1C` (centres undefined): the GI50 in assay [1] was 0.182 µM (active); in [2] it was 0.0014 µM (active); in [4], 0.00343 µM (active); in assay [5], 0.00891 µM (active); in [6], 0.00678 µM (active); in assay [16] it was 0.01 µM (active). The GI50 in assay [7] was < 0.001 µM (active); in assay [8] it was 0.00838 µM (active); in [17], < 0.001 µM (active); in assay [9] it was 0.00129 µM (active); in assay [18] it was 0.00283 µM (active); in [10], 0.00353 µM (active). The GI50 is 0.0405 µM (active) in assay [11]; 0.0328 µM (active) in assay [12]; 0.00274 µM (active) in assay [13]; 0.00496 µM (active) in assay [14]; 0.0149 µM (active) in [15]; 0.00352 µM (active) in assay [19]. Also, in [20], the GI50 is 0.00545 µM (active).
In the case of `c1ccc(N2N=NC3C4CC(C5c6ccccc6C45)C32)cc1` (centres undefined), the GI50 in assay [1] is 33.8 µM (inactive); in assay [2], 18.4 µM (inactive); in [3], 33.6 µM (inactive); in [4], 18.7 µM (inactive); in assay [5] it was 78.5 µM (inactive); in assay [6], 20.8 µM (inactive). Further, the GI50 in assay [7] is 20.5 µM (inactive); in assay [8] it was 17.1 µM (inactive); in assay [9], 18.8 µM (inactive); in assay [10], 28.1 µM (inactive); in assay [11] it was 27.3 µM (inactive); in assay [12], > 100 µM (inactive). Also, the GI50 in assay [13] was 41.4 µM (inactive); in assay [14], 15.4 µM (inactive); in assay [15], 32.4 µM (inactive).
As to `CCN(CCCl)CCCCNc1c2ccccc2nc2ccc(OC)cc12`, the GI50 in assay [1] is 0.177 µM (active); in assay [2] it was 0.0535 µM (active); in [3] it was < 0.023 µM (active); in [4], 0.373 µM (active); in assay [5] it was 0.653 µM (active); in assay [6], 0.957 µM (active). The GI50 in assay [16] was 0.0141 µM (active); in [7], 0.208 µM (active); in [8] it was < 0.01 µM (active); in assay [17] it was 1.22 µM (inactive); in assay [9] it was 0.149 µM (active); in [18] it was 0.457 µM (active). Besides, the GI50 in assay [10] was 0.171 µM (active); in assay [11] it was 0.7 µM (active); in assay [12] it was 0.92 µM (active); in [13], 0.258 µM (active); in assay [14], 0.238 µM (active); in assay [15] it was 0.238 µM (active). In addition, the GI50 was 0.216 µM (active) in [19] and 0.336 µM (active) in assay [20].
